# Values joined by “and” are separate entries in the source; they are usually repeats but may differ in a detail not shown here. Equal entries are not always repeated.
# How the values were obtained:
# MmBRISC = biological target: T1, MmBRISC (Mus musculus, UniProt P46737+Q3TCJ1+Q8K3W0); test: MmBRISC IQF DUB activity assay; type: biochemical; conditions: read-out: Normalised V0
# T1 construct: made in house; host or cells: Trichoplusia ni cells (Bac-to-Bac, pFastBac-HTB)
# Protocol: (§1) IQF assays were performed in DUB reaction buffer containing 50 mM HEPES–NaOH pH 7.0, 100 mM NaCl, 0.1 mg ml^−1 BSA, 1 mM DTT and 0.03% v/v Brij-35. […] The final concentration of BRISC WT, all BRISC mutants, HsBRISCΔLoop, MmBRISC and DrBRISCΔNΔC was 1 nM. Other enzymes were tested at the following concentrations: 5 nM ARISC (FL), 10 nM CfBRISCΔNΔC, 250 nM AMSH* (ref. [43]), 500 nM USP2 and 1 μM trypsin (Sigma, 9002-07-7). For Michaelis–Menten experiments, 1 nM BRISC with 0–1 μM IQF K63-linked diubiquitin substrate was used. Michaelis–Menten analyses and Lineweaver–Burk plots were calculated using GraphPad Prism (version 9.0).
# (§2) To assess enzymatic activity, BRISC complexes were diluted to concentrations between 1 nM and 50 nM. […] Then, 20-μl enzyme reactions were carried out in 384-well black flat-bottom low-flange plates (Corning, 35373). DUB activity was measured using IQF K63-linked diubiquitin (LifeSensors, DU6303) at 50 nM. Cleaved diubiquitin was monitored by measuring fluorescence intensity (excitation, 544 nm; emission, 575 nm; dichroic mirror, 560 nm). Fluorescence intensity was measured every minute for 30 min at 30 °C. Fluorescence intensity units were plotted against time to generate a linear reaction progress curve, where the initial velocity (V0) corresponds to the gradient of the curve (typically achieved within 15 min). IC50 values were calculated using the GraphPad Prism (version 9.0) built-in dose–response equation for inhibitor concentration versus response (variable slope).
# BRISC BRCC45 R137A = BRISC BRCC45 R137A (Homo sapiens, UniProt P46736+Q15018+Q9NXR7, R137A); test: BRISC mutant IQF assay: BRCC45 R137A; type: biochemical
# Protocol: as §1, §2
# DrBRISCΔNΔC = DrBRISCΔNΔC IQF DUB activity assay; type: biochemical, zebrafish (Danio rerio)
# Protocol: as §1, §2
# BRISC BRCC36 L169W = BRISC BRCC36 L169W (Homo sapiens, UniProt P46736+Q15018+Q9NXR7, L169W); test: BRISC mutant IQF assay: BRCC36 L169W; type: biochemical
# Protocol: as §1, §2
# BRISC Abraxas2 T140A = BRISC Abraxas2 T140A (Homo sapiens, UniProt P46736+Q15018+Q9NXR7, T140A); test: BRISC mutant IQF assay: Abraxas2 T140A; type: biochemical
# Protocol: as §1, §2
# BRISC BRCC45 F140A = BRISC BRCC45 F140A (Homo sapiens, UniProt P46736+Q15018+Q9NXR7, F140A); test: BRISC mutant IQF assay: BRCC45 F140A; type: biochemical
# Protocol: as §1, §2
# [1] = FX-171-C 12.5 μM, read-out: Normalised V0
# [2] = FX-171-C 25 μM, read-out: Normalised V0
# [3] = FX-171-C 0.0035 μM, read-out: Normalised V0
# [4] = FX-171-C 0.035 μM, read-out: Normalised V0
# [5] = FX-171-C 0.35 μM, read-out: Normalised V0
# [6] = FX-171-C 3.1 μM, read-out: Normalised V0
# [7] = FX-171-C 6.25 μM, read-out: Normalised V0
# T1 sequence (P46737 whole entry): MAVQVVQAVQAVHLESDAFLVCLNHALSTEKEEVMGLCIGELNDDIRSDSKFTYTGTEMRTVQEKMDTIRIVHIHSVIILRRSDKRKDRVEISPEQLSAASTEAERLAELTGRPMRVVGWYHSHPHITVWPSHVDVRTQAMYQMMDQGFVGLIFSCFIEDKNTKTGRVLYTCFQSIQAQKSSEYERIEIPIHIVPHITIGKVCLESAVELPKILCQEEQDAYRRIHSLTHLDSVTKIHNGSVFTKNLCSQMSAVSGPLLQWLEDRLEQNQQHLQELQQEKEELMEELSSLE
# T1 sequence (Q3TCJ1 whole entry): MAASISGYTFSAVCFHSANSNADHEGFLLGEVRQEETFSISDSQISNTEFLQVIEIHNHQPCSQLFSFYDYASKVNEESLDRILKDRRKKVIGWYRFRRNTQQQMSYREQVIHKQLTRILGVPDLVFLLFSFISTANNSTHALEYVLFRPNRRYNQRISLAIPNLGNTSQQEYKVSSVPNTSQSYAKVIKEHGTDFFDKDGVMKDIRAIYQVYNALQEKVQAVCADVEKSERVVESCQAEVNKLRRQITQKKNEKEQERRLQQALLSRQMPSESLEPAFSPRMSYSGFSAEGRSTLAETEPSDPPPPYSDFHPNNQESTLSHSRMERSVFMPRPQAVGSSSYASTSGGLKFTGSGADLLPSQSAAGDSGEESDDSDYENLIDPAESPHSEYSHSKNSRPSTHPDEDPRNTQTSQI
# T1 sequence (Q8K3W0 whole entry): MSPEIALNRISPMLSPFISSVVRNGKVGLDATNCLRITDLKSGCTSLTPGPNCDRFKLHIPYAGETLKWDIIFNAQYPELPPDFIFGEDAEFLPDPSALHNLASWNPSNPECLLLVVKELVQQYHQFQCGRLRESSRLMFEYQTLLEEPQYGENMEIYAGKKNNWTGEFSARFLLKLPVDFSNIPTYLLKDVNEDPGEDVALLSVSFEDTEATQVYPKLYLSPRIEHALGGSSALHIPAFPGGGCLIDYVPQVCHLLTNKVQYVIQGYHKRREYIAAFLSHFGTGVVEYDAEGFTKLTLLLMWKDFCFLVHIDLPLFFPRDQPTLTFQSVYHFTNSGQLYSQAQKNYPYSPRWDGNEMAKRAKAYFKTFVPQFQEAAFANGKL
# T1 sequence (Q3UI43 whole entry partner): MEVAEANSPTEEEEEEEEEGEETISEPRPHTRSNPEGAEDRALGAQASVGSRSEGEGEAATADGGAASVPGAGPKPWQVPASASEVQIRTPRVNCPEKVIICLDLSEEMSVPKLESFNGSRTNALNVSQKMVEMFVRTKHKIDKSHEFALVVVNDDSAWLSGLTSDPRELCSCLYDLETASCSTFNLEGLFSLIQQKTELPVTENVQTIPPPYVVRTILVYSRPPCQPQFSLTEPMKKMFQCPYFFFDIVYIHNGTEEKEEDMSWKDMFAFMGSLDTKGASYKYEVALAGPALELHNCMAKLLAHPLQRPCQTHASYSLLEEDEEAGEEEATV
structure (smiles),measurement,setting,value
O=C(NC1C2CNCC21)c1nn(C(=O)c2c(Cl)cccc2Cl)cc1NC(=O)c1c(Cl)cccc1Cl (stereo not drawn) [FX-171-C],remaining activity at 0.02 µM,MmBRISC; FX-171-C 0.02 μM,101%
same,remaining activity at 0.0399999 µM,MmBRISC; FX-171-C 0.0399999 μM,89.4%
same,remaining activity at 0.0599997 µM,MmBRISC; FX-171-C 0.0599997 μM,106%
same,remaining activity at 0.0799994 µM,MmBRISC; FX-171-C 0.0799994 μM,102%
same,remaining activity at 0.119998 µM,MmBRISC; FX-171-C 0.119998 μM,107%
same,remaining activity at 0.199996 µM,MmBRISC; FX-171-C 0.199996 μM,106%
same,remaining activity at 0.499975 µM,MmBRISC; FX-171-C 0.499975 μM,94.9%
same,remaining activity at 0.799937 µM,MmBRISC; FX-171-C 0.799937 μM,98%
same,remaining activity at 1.25984 µM,MmBRISC; FX-171-C 1.25984 μM,89.8%
same,remaining activity at 1.9996 µM,MmBRISC; FX-171-C 1.9996 μM,97.6%
same,remaining activity at 3.159 µM,MmBRISC; FX-171-C 3.159 μM,92.5%
same,remaining activity at 5.19739 µM,MmBRISC; FX-171-C 5.19739 μM,87.1%
same,remaining activity at 7.99364 µM,MmBRISC; FX-171-C 7.99364 μM,68.2%
same,remaining activity at 12.7839 µM,MmBRISC; FX-171-C 12.7839 μM,57.7%
same,remaining activity at 19.96 µM,MmBRISC; FX-171-C 19.96 μM,43.1%
same,remaining activity at 31.4999 µM,MmBRISC; FX-171-C 31.4999 μM,34%
same,remaining activity at 50.147 µM,MmBRISC; FX-171-C 50.147 μM,24.4%
same,remaining activity at 79.7601 µM,MmBRISC; FX-171-C 79.7601 μM,22.6%
same,remaining activity at 125.99 µM,MmBRISC; FX-171-C 125.99 μM,12%
same,IC50,BRISC BRCC45 R137A,> 100 µM
same,inhibitor sensitivity vs BRISC WT,BRISC BRCC45 R137A,reduced sensitivity to inhibition
same,remaining activity at 12.5 µM,BRISC BRCC45 R137A; [1],87.5%
same,remaining activity at 25 µM,BRISC BRCC45 R137A; [2],80.1%
same,Normalised V0,DrBRISCΔNΔC; FX-171-C 0.013 μM,0.983 and 1.045 and 1.007 and 1.076 and 0.9046 and 1
same,Normalised V0,DrBRISCΔNΔC; FX-171-C 0.02 μM,0.9073 and 0.9513 and 0.9154
same,Normalised V0,DrBRISCΔNΔC; FX-171-C 0.0399999 μM,0.972 and 1.086 and 0.9939
same,Normalised V0,DrBRISCΔNΔC; FX-171-C 0.0599997 μM,1 and 1.042 and 0.951
same,Normalised V0,DrBRISCΔNΔC; FX-171-C 0.0799994 μM,1.257 and 1.072 and 1.014
same,Normalised V0,DrBRISCΔNΔC; FX-171-C 0.119998 μM,0.9667 and 1.1184 and 0.9769
same,Normalised V0,DrBRISCΔNΔC; FX-171-C 0.199996 μM,1.0445 and 1.023 and 0.9962
same,Normalised V0,DrBRISCΔNΔC; FX-171-C 0.499975 μM,0.9714 and 1.052 and 0.9507
same,Normalised V0,DrBRISCΔNΔC; FX-171-C 0.799937 μM,1.009 and 0.9333 and 0.8977
same,Normalised V0,DrBRISCΔNΔC; FX-171-C 1.25984 μM,0.9862 and 1.093 and 0.9451
same,Normalised V0,DrBRISCΔNΔC; FX-171-C 1.9996 μM,0.9182 and 0.9951 and 0.8213
same,Normalised V0,DrBRISCΔNΔC; FX-171-C 3.159 μM,1.042 and 0.9998 and 0.8593
same,Normalised V0,DrBRISCΔNΔC; FX-171-C 5.19739 μM,0.6448 and 0.9953 and 0.847
same,Normalised V0,DrBRISCΔNΔC; FX-171-C 7.99364 μM,0.9454 and 0.9127 and 0.9517
same,Normalised V0,DrBRISCΔNΔC; FX-171-C 12.7839 μM,0.9358 and 1.024 and 0.8831
same,Normalised V0,DrBRISCΔNΔC; FX-171-C 19.96 μM,0.6505 and 0.8985 and 0.8711
same,Normalised V0,DrBRISCΔNΔC; FX-171-C 31.4999 μM,0.752 and 0.7818 and 0.7739
same,Normalised V0,DrBRISCΔNΔC; FX-171-C 50.147 μM,0.6953 and 0.6278 and 0.7138
same,Normalised V0,DrBRISCΔNΔC; FX-171-C 79.7601 μM,0.6671 and 0.5066 and 0.3963
same,Normalised V0,DrBRISCΔNΔC; FX-171-C 125.99 μM,0.4739 and 0.3651 and 0.4262
same,Normalised V0,DrBRISCΔNΔC; FX-171-C 199.922 μM,0.313 and 0.2853 and 0.3043
same,IC50,BRISC BRCC36 L169W,91 µM
same,reduction of inhibition over wild-type complex,BRISC BRCC36 L169W,> 100 fold
same,remaining activity at 0.0035 µM,BRISC BRCC36 L169W; [3],94%
same,remaining activity at 0.035 µM,BRISC BRCC36 L169W; [4],91.9%
same,remaining activity at 0.35 µM,BRISC BRCC36 L169W; [5],94%
same,remaining activity at 3.1 µM,BRISC BRCC36 L169W; [6],93.5%
same,remaining activity at 6.25 µM,BRISC BRCC36 L169W; [7],90.3%
same,remaining activity at 12.5 µM,BRISC BRCC36 L169W; [1],89.8%
same,remaining activity at 25 µM,BRISC BRCC36 L169W; [2],93.8%
same,remaining activity at 50 µM,"BRISC BRCC36 L169W; FX-171-C 50 μM, read-out: Normalised V0",84.8%
same,IC50,BRISC Abraxas2 T140A; Abraxas 2 T140A,5 µM
same,inhibitor sensitivity vs BRISC WT,BRISC Abraxas2 T140A; Abraxas 2 T140A,IC50 tenfold higher than BRISC WT
same,remaining activity at 0.0035 µM,"BRISC Abraxas2 T140A; Abraxas2 T140A, FX-171-C 0.0035 μM, read-out: Normalised V0",89.1%
same,remaining activity at 0.35 µM,"BRISC Abraxas2 T140A; Abraxas2 T140A, FX-171-C 0.35 μM, read-out: Normalised V0",99.5%
same,remaining activity at 3.1 µM,"BRISC Abraxas2 T140A; Abraxas2 T140A, FX-171-C 3.1 μM, read-out: Normalised V0",53.4%
same,IC50,BRISC BRCC45 F140A,4.3 µM
same,inhibitor sensitivity vs BRISC WT,BRISC BRCC45 F140A,reduced sensitivity to inhibition
same,remaining activity at 0.0035 µM,BRISC BRCC45 F140A; [3],96%
same,remaining activity at 0.035 µM,BRISC BRCC45 F140A; [4],92.5%
same,remaining activity at 0.35 µM,BRISC BRCC45 F140A; [5],89.9%
same,remaining activity at 3.1 µM,BRISC BRCC45 F140A; [6],51.2%
same,remaining activity at 6.25 µM,BRISC BRCC45 F140A; [7],43.9%
same,remaining activity at 12.5 µM,BRISC BRCC45 F140A; [1],26.9%
same,remaining activity at 25 µM,BRISC BRCC45 F140A; [2],14.2%
same,remaining activity at 100 µM,"BRISC BRCC45 F140A; FX-171-C 100 μM, read-out: Normalised V0",5.06%

# Source: publication PMC7617869, “Molecular glues that inhibit deubiquitylase activity and inflammatory signaling” (Nature Structural & Molecular Biology, 2025)
